In PMC5740082, “Identification of a CARM1 Inhibitor with Potent In Vitro and In Vivo Activity in Preclinical Models of Multiple Myeloma” (Scientific Reports, 2017):
Several values for one entry are separate records, joined by “and”; a condition that tells them apart may be missing. Identical values can stand only once. Like-named read-outs stand apart in the source and are kept apart here.

How the values were obtained:
REC-1 = experiment: Six-day cell proliferation assay (CellTiter-Glo); assay type: cell-based; conditions: Homo sapiens, Rec1, 144 h; REC-1 (B-NHL), 6 days; read-out: Average day 6 gIC50
Procedure: Six-day cell proliferation assay
Optimal cell seeding density was determined empirically for each cell lines by examining the gro wth of a wide ran ge o f seedin g densities in a 3 84-well formatto identify conditio ns that permitted maximal and continued proliferation for 6 days. Cells were plat ed in duplicate plates 24 hours before treatment with a 20- point two-fold dilution series of compound or 0.15%
DMSO. Plates were incubated for 6 da ys at 37°C in 5% CO2. Cells were th en l ysed with CellTiter-Glo (CTG) (Pr omega) and chemiluminescent sign al was detected with an appropriat e microplate reader. In addition, an untreated plate of cells was harvested at the time of compound addition (T0) to quantif y the initial cell densit y. CTG values obtained after 6 days of treatment were expressed as a percent of the T0 value and plotted against compound concentration. […]
Supplementary Table S 3. […] A p anel […]
of cell lines was treated with EZM2302fo r 6da ys in a proliferation ass a y. Cell densit y (as assessed b y CellTiter-Gl o) at da y 0 was compared to day 6 to det ermine growth IC 50 values , calculated us i n g a f our parameter dose response equation.
Cell Type According to Cell Type Category Cell L ine Name gIC50 Average day 6 Standard Replicates
Supplier Modifier gIC50 (nM) Deviation

[1] = test system: PABP1 and SmB methylation in U266B1 cells; experiment: Western blot of cellular methyl marks, U266B1; conditions: 96 h
Procedure: Methylation changes were measured at the well-characterized CARM1 substrates PABP1 and SmB[1],[10]. Changes in overall levels of asymmetric dimethyl arginine (aDMA) were assessed with an antibody that detects a generic aDMA motif. Levels of methylated analytes were quantified by densitometry and ratios of methylated to total protein were calculated to determine the cell biochemical IC50 values.
Cultured cells in linear/log phase growth were split to a seeding density of 2e5 cells/mL in 2–20mLs of media, depending on the yield required at the end of the growth period. Compound was diluted in DMSO and added to each culture vessel with a final DMSO concentration of 0.2%. Cells were allowed to grow for 96 hours. At the conclusion of each treatment period, cells were harvested by centrifugation (5 minutes, 1200 rpm), and cell pellets were rinsed once with PBS before being frozen on dry ice pending further processing.
Quantification of Western blots was performed using infra-red emitting secondary antibodies and detection with an ODYSSEY infrared imaging system.

[2] = Pharmacokinetic study in rat
Procedure: An additional group of rats, cannulated in both the jugular and portal veins were dosed by oral gavage (10 mg/kg, in 0.5% methylcellulose in water). Approximately 110 μL of blood was taken from the animals by retro-orbital bleeding (mouse), tail vein (rat i.v.) or both jugular and portal vein sampling (rat p.o.) at pre-specified time intervals. The 2 h samples were split for parallel determination of blood and plasma concentration (ex vivo ratio). Blood samples were collected into K2-EDTA tubes and centrifuged to obtain plasma.

[3] = Sprague-Dawley, rat, plasma, po, 10 mg/kg
[4] = male, Sprague-Dawley, rat, plasma, iv, 2 mg/kg

CNC[C@@H](O)COc1ccc(Cl)c(-c2nc(-c3c(C)noc3C)c(C)c(N3CC4(CCN(C(=O)OC)CC4)C3)n2)c1 [EZM2302]
IC50 (REC-1): > 7.33 µM
IC50 ([1]; read-out: IC50, PABP1me2a): 0.022 µM
IC50 ([1]; read-out: IC50, SmBme0): 0.02 µM
CL (plasma clearance) ([2]; Sprague-Dawley rat, IV Bolus 2 mg/kg, 2 mg/kg): 5.43 ± 0.63 L/h/kg
Fa*Fg (fraction of the dose absorbed from the gastro-intestinal tract) ([2]; Sprague-Dawley rat, PO 10 mg/kg, JVC-PVC rat PK experiment, 10 mg/kg): 81% and 80.7%
AUC(0-inf) [2, 3]: 0.487 ± 0.102 µg·h/mL
AUC(0-t) [2, 3]: 0.453 ± 0.0893 µg·h/mL
Cmax [2, 3]: 0.113 ± 0.0224 µg/mL
Tmax [2, 3]: 2 h
bioavailability [2, 3]: 26.2 ± 5.45%
half-life [2, 3]: 6.64 ± 1.41 h
AUC(0-inf) [2, 4]: 0.372 ± 0.0433 µg·h/mL
AUC(0-t) [2, 4]: 0.352 ± 0.0306 µg·h/mL
Vd [2, 4]: 35.6 ± 1.3 L/kg
half-life [2, 4]: 6.21 ± 1.65 h
clearance ([2]; male, Sprague-Dawley, rat, plasma, iv, 2 mg/kg, CL (plasma clearance), Sprague-Dawley rat, IV Bolus 2 mg/kg): 5.46 L/h/kg
